The test system of one assay is corn. Nature of the assay: Improvement of plant growth in corn: seed treatment, two week growth in seed germination pouches. In kind it is in vivo. To be noted: pyraclostrobin 1 g a.i./100 kg seed and/or FB17 1 × 10^6 CFU per seed, two weeks growth. The procedure: (§1) Pyraclostrobin was applied to corn or wheat seeds as the commercial, liquid seed treatment formulation Stamina® (200 g per litre a.i., BASF Corporation, Research Triangle Park, North Carlolina), whereas Bacillus subtilis FB17 was applied to corn seeds as a SC formulation (about 2×10^10 CFU ml^−1).
Corn or wheat seeds were treated at the BASF Seed Solutions Technology Center (SSTC) in Ames, Iowa. Pyraclostrobin and Bacillus subtilis UD1022 were applied to maize seeds as water-based slurries by using methods consistent with commercial seed treatment applications in a laboratory-scale batch treater. Briefly, 500 g of corn seeds were added to the drum of a laboratory-scale batch treater and 6 ml of prepared slurry (with appropriate amount of pyraclostrobin, Bacillus subtilis FB17, or combination thereof) was applied to the seed as the drum rotated. For 500 g of wheat seeds, 8 ml of slurry was used. Seed was rotated in the drum for 30 seconds following application of the slurry to assure uniform and complete coverage to the seed surface.
Treated seeds were placed in seed germination pouches (Mega International, St. Paul, Minn.) and 20 ml of fertilizer solution that provided 50 ppm nitrogen, 7.5 ppm phosphorus, and 37.5 ppm potassium (derived from calcium nitrate, potassium nitrate, phosphoric acid and adjusted to pH 6.5) was added to each pouch. Seed germination pouches were placed in 25° C. growth chambers with a 16 h photoperiod. Five ml of fertilizer solution was added to seed germination pouches at two day intervals to replenish water lost to evapotranspiration.
Corn or wheat plants were allowed to grow for two weeks. At the conclusion of the two week growth period, plant height and shoot and root dry weights were determined. Plant height was measured in centimeters. Shoot and root tissues were separated and dried in an oven at 68° C. for three days. Shoot and root dry weights were measured in mg using an analytical balance.
Treatments were arranged in a completely randomized design with ten replications per treatment. Shoot height, shoot dry weight and root dry weight data were expressed as difference (%) relative to the not-treated control to facilitate application of Colby's formula (Colby, 1967) to calculate expected difference (EColby).
EColby=PA+PB−PA*PB/100 • EColby expected difference, expressed in % difference from the not-treated control, when using the mixture of the active compounds A and B at the concentrations a and b • PA difference, expressed as % difference from the not-treated control, when using the active compound A at the concentration a • PB difference, expressed in % difference from the not-treated control, when using the active compound B at the concentration b.

Another assay relates to wheat. Nature of the assay: Improvement of plant growth in wheat: seed treatment, two week growth in seed germination pouches. In kind it is in vivo. Particulars: pyraclostrobin 1 g a.i./100 kg seed and/or FB17 1 × 10^6 CFU per seed, two weeks growth. As for the experimental part: as §1
Corn or wheat seeds were treated at the BASF Seed Solutions Technology Center (SSTC) in Ames, Iowa. Pyraclostrobin and Bacillus subtilis UD1022 were applied to maize seeds as water-based slurries by using methods consistent with commercial seed treatment applications in a laboratory-scale batch treater. […]
Corn or wheat plants were allowed to grow for two weeks. At the conclusion of the two week growth period, plant height and shoot and root dry weights were determined. Plant height was measured in centimeters. […] Shoot and root dry weights were measured in mg using an analytical balance.
Treatments were arranged in a completely randomized design with ten replications per treatment. Shoot height, shoot dry weight and root dry weight data were expressed as difference (%) relative to the not-treated control to facilitate application of Colby's formula (Colby, 1967) to calculate expected difference (EColby). […]

`COC(=O)N(OC)c1ccccc1COc1ccn(-c2ccc(Cl)cc2)n1` [Pyraclostrobin, pyraclostrobin]: in the assay on corn, the “Difference (shoot dry weight) relative to not-treated control” value was 1.1% and the “Difference (shoot height) relative to not-treated control” value was 3.5%. Moreover, the Shoot dry weight with corn (dried at 68° C. for three days) is given as 85.0 mg. Moreover, the Shoot height in the assay on corn (mean of 10 measurements) was determined as 29.7 cm. In the assay with wheat, the “Difference (root dry weight) relative to not-treated control” value was 17.4%. In the assay with wheat (dried at 68° C. for three days), the Root dry weight was 10.1 mg.

These data come from patent US20160270405A1, “Synergistic Compositions Comprising a Bacillus Subtilis Strain and a Pesticide” (BASF CORPORATION, priority 2013, published 2016).
